Data taken from patent publication US10071963B2, “Polymorphic form of N-[2-(6-fluoro-1H-indol-3-yl)ethyl]-3-(2,2,3,3-tetrafluoropropoxy)benzylamine hydrochloride for the treatment of Alzheimer's disease” (H. Lundbeck A/S, priority 2014, dated 2018).

What was measured:
Type in all cases: physicochemical
[1] = Thermodynamic solubility in organic solvents; conditions: room temperature (about 23° C.); for Solubility: HPLC at 217 nm, hydrochloride
Protocol: Thermodynamic solubility of polymorphic form I and III of N-[2-(6-fluoro-1H-indol-3-yl)ethyl]-3-(2,2,3,3-tetrafluoropropoxy)benzylamine hydrochloride was measured by shaking an excess amount of the two polymorphic forms in the organic solvent in a sealed container at room temperature (about 23° C.). After equilibrium was attained, a sample was withdrawn, the solid filtered or centrifuged off and the clear filtrate/supernatant was assayed by HPLC at 217 nm. The precipitate was evaluated by XRPD to determine the polymorphic form.

[2] = Slurry experiments of polymorphic form I in solvents, solid evaluated by XRPD; conditions: no solvate formed, hydrochloride
Protocol: 6 mL of a solvent or solvent mixture is added into a glass vial together with polymorphic form I of N-[2-(6-fluoro-1H-indol-3-yl)ethyl]-3-(2,2,3,3-tetrafluoropropoxy)benzylamine hydrochloride. The added amount of compound is determined by the expected solubility in the relevant solvent or solvent system. If a clear solution is obtained anti-solvent and/or additional polymorphic form I of N-[2-(6-fluoro-1H-indol-3-yl)ethyl]-3-(2,2,3,3-tetrafluoropropoxy)benzylamine hydrochlorideis added until it is a suspension at the relevant temperature. The suspension is slurred for a prolonged period of time. The result of the slurry experiment is evaluated by filtering off the solid material and measuring XRPD on the isolated solid.
6 mL of a toluene/acetonitrile (4:1) solvent mixture was added into a glass vial and 100 mg polymorphic form I of N-[2-(6-fluoro-1H-indol-3-yl)ethyl]-3-(2,2,3,3-tetrafluoropropoxy)benzylamine hydrochloride was added. The resulting suspension was heated to 50° C. A clear solution was obtained and another 50 mg was added. The suspension was stirred for one month at 50° C. Polymorphic form III of N-[2-(6-fluoro-1H-indol-3-yl)ethyl]-3-(2,2,3,3-tetrafluoropropoxy)benzylamine hydrochloride was obtained as evaluated by XRPD.
6 mL of an acetone/heptane (1:4) solvent mixture was added into a glass vial and 100 mg polymorphic form I of N-[2-(6-fluoro-1H-indol-3-yl)ethyl]-3-(2,2,3,3-tetrafluoropropoxy)benzylamine hydrochloride was added. The resulting suspension was heated to 50° C. The suspension was stirred for one week at 50° C. Polymorphic form III of N-[2-(6-fluoro-1H-indol-3-yl)ethyl]-3-(2,2,3,3-tetrafluoropropoxy)benzylamine hydrochloride was obtained as evaluated by XRPD.
6 mL of a methanol/toluene (1:9) solvent mixture was added into a glass vial and 100 mg polymorphic form I of N-[2-(6-fluoro-1H-indol-3-yl)ethyl]-3-(2,2,3,3-tetrafluoropropoxy)benzylamine hydrochloride was added. After stirring another 1 mL of the anti-solvent (toluene) was added +50 mg polymorphic form I of N-[2-(6-fluoro-1H-indol-3-yl)ethyl]-3-(2,2,3,3-tetrafluoropropoxy)benzylamine hydrochloride. […] To the 4 mL solutions another 1 mL of toluene was added and additional 50 mg polymorphic form I of N-[2-(6-fluoro-1H-indol-3-yl)ethyl]-3-(2,2,3,3-tetrafluoropropoxy)benzylamine hydrochloride. The resulting suspension was heated to 50° C. A clear solution was obtained and substance was added until a suspension was obtained. The suspension was stirred for one week at 50° C. Polymorphic form III of N-[2-(6-fluoro-1H-indol-3-yl)ethyl]-3-(2,2,3,3-tetrafluoropropoxy)benzylamine hydrochloride was obtained as evaluated by XRPD.
6 mL of isopropyl acetate was added into a glass vial and 50 mg polymorphic form I of N-[2-(6-fluoro-1H-indol-3-yl)ethyl]-3-(2,2,3,3-tetrafluoropropoxy)benzylamine hydrochloride was added. The resulting suspension was heated to 50° C. A clear solution was obtained and another 50 mg polymorphic form I of N-[2-(6-fluoro-1H-indol-3-yl)ethyl]-3-(2,2,3,3-tetrafluoropropoxy)benzylamine hydrochloride was added. Substance was added until a suspension was obtained at 50° C. The suspension was stirred for one week at 50° C. Polymorphic form III of N-[2-(6-fluoro-1H-indol-3-yl)ethyl]-3-(2,2,3,3-tetrafluoropropoxy)benzylamine hydrochloride was obtained as evaluated by XRPD.
6 mL of ethyl acetate was added into a glass vial and 150 mg polymorphic form I of N-[2-(6-fluoro-1H-indol-3-yl)ethyl]-3-(2,2,3,3-tetrafluoropropoxy)benzylamine hydrochloride was added. The resulting suspension was heated to 50° C. on a thermal stirrer plate. A clear solution was obtained and 50 mg polymorphic form I of N-[2-(6-fluoro-1H-indol-3-yl)ethyl]-3-(2,2,3,3-tetrafluoropropoxy)benzylamine hydrochloride was added. Polymorphic form I of N-[2-(6-fluoro-1H-indol-3-yl)ethyl]-3-(2,2,3,3-tetrafluoropropoxy)benzylamine hydrochloride was added until a suspension was obtained. The suspension was stirred for one month at 50° C. […]

[3] = Relative stability of polymorphic form I, II and III (competitive slurry in saturated solution); conditions: II and III in equal amounts, hydrochloride
Protocol: A saturated solution was prepared by heating 1.6 mL isopropyl acetate and 0.4 mL heptane to 70° C. and adding 50 mg of polymorphic form I of N-[2-(6-fluoro-1H-indol-3-yl)ethyl]-3-(2,2,3,3-tetrafluoropropoxy)benzylamine hydrochloride.
The supernatant was divided into two ampoules and kept at 60° C. and 70° C.
5 mg of polymorphic form I, II and III of N-[2-(6-fluoro-1H-indol-3-yl)ethyl]-3-(2,2,3,3-tetrafluoropropoxy)benzylamine hydrochloride was added to the 60° C. solution and left stirring at 60° C. for one and four days, respectively.
2.5 mg of polymorphic form I, II and III of N-[2-(6-fluoro-1H-indol-3-yl)ethyl]-3-(2,2,3,3-tetrafluoropropoxy)benzylamine hydrochloride was added to the 70° C. solution and left without stirring at 70° C. for three days.

[4] = 70° C., without stirring, three days
[5] = isopropyl acetate, 60° C., one and four days

Row | SMILES | Solubility ([1]; 2-butanol) [mg base/mL] | Solubility ([1]; Isopropanol) [mg base/mL] | Solubility ([1]; Isopropyl acetate) [mg base/mL] | Relative solubility and thermodynamic stability ([1]; organic solvents, compared with polymorphic form I) | Transformation on slurrying / relative solubility and thermodynamic stability ([2]; slurried at 5° C.) | Transformation on slurrying / relative solubility and thermodynamic stability ([2]; slurried at 25° C.) | Transformation on slurrying / relative solubility and thermodynamic stability ([2]; slurried at 50° C.) | Relative thermodynamic stability of the polymorphic forms [3, 4] | Relative thermodynamic stability of the polymorphic forms [3, 5]
1 | Cl.Fc1ccc2c(CCNCc3cccc(OCC(F)(F)C(F)F)c3)c[nH]c2c1 [polymorphic form III, N-[2-(6-fluoro-1H-indol-3-yl)ethyl]-3-(2,2,3,3-tetrafluoropropoxy)benzylamine hydrochloride] | 9.3 | 24.5 | 3.0 | slightly less soluble and therefore thermodynamically stable | less soluble and therefore thermodynamically stable | less soluble and therefore thermodynamically stable | less soluble and therefore thermodynamically stable | vanished | transforming into polymorphic form II
2 | Cl.Fc1ccc2c(CCNCc3cccc(OCC(F)(F)C(F)F)c3)c[nH]c2c1 [polymorphic form II, N-[2-(6-fluoro-1H-indol-3-yl)ethyl]-3-(2,2,3,3-tetrafluoropropoxy)benzylamine hydrochloride] |  |  |  |  |  |  |  | thermodynamically stable | thermodynamically stable
3 | Cl.Fc1ccc2c(CCNCc3cccc(OCC(F)(F)C(F)F)c3)c[nH]c2c1 [polymorphic form I, N-[2-(6-fluoro-1H-indol-3-yl)ethyl]-3-(2,2,3,3-tetrafluoropropoxy)benzylamine hydrochloride] | 10.5 | 25.2 | 3.4 |  | transformed into polymorphic form III | transformed into polymorphic form III | transformed into polymorphic form III |  | less stable than polymorphic form III
